Here are results for 2 compounds from patent publication US10144723B2, “Treatment of solid tumors by inhibiting MRK/ZAK” (The Feinstein Institute For Medical Research, priority 2014, dated 2018).

One test has as its system 4T1 breast cancer cells. In words: MTT cell viability after X-ray irradiation. In kind it is cell-based. The settings on record: 4T1 cells, M443 6 hours before irradiation, MTT 72 hours after. As to the method: FIG. 8. […] 4T1 breast cancer cells were plated in 96-well plates (750 cells per well/8 wells per condition) and treated with M443 at the indicated concentrations 6 hours before irradiating at the indicated dosages. 72 hours after irradiation MTT solution (1.25 μg/μl) was added to all wells and incubated for an additional 3 hours before cell viability/mitochondrial activity was analyzed. Shown are the means+/−SD of 8 replicate wells.

For the next test, the system named is p38. In words: IR-induced signaling downstream of MRK, phospho-p38 western blot. In kind it is cell-based. The note with it: UW228 cells, 500 nM M443 6 hours, 1 hour after IR. As to the method: (§1) FIG. 7. Inhibition of IR-induced signaling downstream of MRK by M443. UW228 medulloblastoma cells were treated with 500 nM of M443 or with vehicle for 6 hours, and then exposed to IR or not. One hour after IR treatment, cells were harvested and cell lysates were tested by western blot for the activities of MRK, p38 and Chk2 proteins using the respective phospho-specific antibodies.
(§2) By inhibiting MRK activity, M443 was expected to reduce signal transduction downstream of MRK. […] Thus, M443 inhibits MRK activation by IR and its downstream signaling events, which leads to loss of cell viability after exposure to IR.
Background: In western blotting, separated proteins are transferred to a membrane and probed.

Test [1] deals with T1, MRK (Homo sapiens, UniProt Q9NYL2). In words: Inhibition of endogenous MRK activity induced by radiation in medulloblastoma cells. In kind it is cell-based. On the set-up: endogenous in cells; host or cells: UW228 medulloblastoma cells. How it is done: FIG. 7. Inhibition of IR-induced signaling downstream of MRK by M443. […] One hour after IR treatment, cells were harvested and cell lysates were tested by western blot for the activities of MRK, p38 and Chk2 proteins using the respective phospho-specific antibodies.
T1 sequence (Q9NYL2 whole entry): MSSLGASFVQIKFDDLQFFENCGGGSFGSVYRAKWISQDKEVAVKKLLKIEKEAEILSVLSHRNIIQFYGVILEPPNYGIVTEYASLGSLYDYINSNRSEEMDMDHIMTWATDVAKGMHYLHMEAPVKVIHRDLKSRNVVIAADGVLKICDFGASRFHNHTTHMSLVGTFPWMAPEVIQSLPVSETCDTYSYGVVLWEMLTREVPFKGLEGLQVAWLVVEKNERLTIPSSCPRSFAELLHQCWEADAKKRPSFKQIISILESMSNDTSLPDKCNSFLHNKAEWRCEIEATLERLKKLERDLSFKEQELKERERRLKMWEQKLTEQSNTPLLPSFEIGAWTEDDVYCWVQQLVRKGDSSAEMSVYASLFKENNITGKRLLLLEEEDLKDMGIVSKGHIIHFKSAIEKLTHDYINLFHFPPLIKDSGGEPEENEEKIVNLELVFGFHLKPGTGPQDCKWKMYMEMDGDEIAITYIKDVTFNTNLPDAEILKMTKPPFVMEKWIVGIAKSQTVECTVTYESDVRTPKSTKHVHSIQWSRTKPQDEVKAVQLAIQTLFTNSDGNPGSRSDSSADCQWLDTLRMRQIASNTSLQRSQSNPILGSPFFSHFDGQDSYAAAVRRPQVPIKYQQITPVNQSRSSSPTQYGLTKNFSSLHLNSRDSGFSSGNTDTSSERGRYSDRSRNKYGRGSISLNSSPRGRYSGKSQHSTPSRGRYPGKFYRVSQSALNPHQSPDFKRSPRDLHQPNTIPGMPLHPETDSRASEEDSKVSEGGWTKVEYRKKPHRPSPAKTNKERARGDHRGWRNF

The target of the next test is T2, BCR-Abl (Homo sapiens, UniProt P00519).
T2 construct: BCR (N-terminal fusion partner, P11274); endogenous in cells; host or cells: K562; the other entry of the earlier key: BCR (P11274, Breakpoint cluster region protein)
T2 sequence (P00519 with tags, fused parts or gaps): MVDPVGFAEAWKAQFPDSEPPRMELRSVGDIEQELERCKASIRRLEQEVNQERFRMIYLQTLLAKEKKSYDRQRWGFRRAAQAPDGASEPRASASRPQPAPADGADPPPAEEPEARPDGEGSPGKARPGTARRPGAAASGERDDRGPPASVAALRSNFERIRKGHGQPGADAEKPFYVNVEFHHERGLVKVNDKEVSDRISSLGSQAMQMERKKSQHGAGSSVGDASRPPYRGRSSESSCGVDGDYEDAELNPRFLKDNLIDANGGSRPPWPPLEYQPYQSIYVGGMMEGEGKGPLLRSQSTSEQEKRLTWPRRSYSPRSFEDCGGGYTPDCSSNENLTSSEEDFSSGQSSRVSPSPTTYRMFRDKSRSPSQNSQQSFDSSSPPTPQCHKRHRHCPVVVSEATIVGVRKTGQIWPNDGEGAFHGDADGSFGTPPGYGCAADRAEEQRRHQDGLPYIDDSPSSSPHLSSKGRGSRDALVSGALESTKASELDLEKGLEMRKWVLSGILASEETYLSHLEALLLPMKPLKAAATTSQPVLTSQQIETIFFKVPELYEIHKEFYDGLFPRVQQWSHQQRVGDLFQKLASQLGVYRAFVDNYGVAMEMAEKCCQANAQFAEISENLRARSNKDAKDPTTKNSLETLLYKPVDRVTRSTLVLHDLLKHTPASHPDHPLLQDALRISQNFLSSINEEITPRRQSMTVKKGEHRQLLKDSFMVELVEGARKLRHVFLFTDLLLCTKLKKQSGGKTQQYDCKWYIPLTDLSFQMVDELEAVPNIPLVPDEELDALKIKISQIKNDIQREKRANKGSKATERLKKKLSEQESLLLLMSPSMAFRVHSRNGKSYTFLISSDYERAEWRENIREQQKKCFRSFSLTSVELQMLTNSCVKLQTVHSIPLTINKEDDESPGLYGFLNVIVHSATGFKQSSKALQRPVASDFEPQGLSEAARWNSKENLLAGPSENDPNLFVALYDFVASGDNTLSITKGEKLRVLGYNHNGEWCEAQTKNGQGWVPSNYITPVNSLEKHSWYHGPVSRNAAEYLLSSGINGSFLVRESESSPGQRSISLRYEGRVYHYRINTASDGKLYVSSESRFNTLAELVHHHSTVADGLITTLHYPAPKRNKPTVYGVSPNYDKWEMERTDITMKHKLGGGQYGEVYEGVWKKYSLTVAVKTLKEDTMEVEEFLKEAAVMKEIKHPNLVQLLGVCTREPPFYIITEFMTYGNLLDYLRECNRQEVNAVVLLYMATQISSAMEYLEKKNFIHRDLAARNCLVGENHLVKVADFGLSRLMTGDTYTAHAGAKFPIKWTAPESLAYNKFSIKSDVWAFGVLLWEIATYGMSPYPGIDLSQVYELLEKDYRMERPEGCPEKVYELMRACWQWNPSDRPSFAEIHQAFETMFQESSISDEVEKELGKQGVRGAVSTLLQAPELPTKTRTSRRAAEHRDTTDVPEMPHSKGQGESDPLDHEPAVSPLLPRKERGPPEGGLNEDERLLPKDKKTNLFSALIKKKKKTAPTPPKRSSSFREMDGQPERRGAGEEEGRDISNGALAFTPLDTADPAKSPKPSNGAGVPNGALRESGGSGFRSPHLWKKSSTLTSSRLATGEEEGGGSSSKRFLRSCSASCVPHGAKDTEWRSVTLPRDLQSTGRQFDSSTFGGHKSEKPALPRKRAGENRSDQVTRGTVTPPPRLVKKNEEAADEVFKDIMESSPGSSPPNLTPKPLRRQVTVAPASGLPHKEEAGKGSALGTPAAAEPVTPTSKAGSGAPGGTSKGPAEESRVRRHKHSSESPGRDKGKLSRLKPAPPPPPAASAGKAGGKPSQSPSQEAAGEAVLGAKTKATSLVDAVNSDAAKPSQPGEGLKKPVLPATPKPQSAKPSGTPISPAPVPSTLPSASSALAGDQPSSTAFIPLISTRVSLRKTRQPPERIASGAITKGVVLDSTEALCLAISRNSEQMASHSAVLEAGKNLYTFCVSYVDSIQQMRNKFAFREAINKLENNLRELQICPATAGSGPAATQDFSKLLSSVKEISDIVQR
Briefly: BCR-Abl activity in K562 cells, western blot. The settings on record: 1 μM, 6 hours. In kind it is cell-based. As to the method:
(§3) FIG. 11. M443 inhibits MRK activity, but not BCR-Abl. K562 cells were treated with DMSO, 1 μM Nilotinib or 1 μM M443 for 6 hours and then they were processed for western blot with the indicated antibodies.

The subject of test [2] is UW228 medulloblastoma cells. In words: Colony formation assay with radiation. In kind it is cell-based. The note with it: 6 hours M443 before radiation, colonies counted after 7 days. How it is done:
FIG. 6. M443 sensitizes UW228 medulloblastoma cells to radiation. UW228 cells were seeded for the colony formation assay at 500 cells/dish. The following day, they were treated for 6 hours with the indicated doses of M443 and then exposed to different doses of radiation. After incubation at 37° C. for 7 days, colonies larger than 50 cells were counted.

Test [3] deals with T1, MRK. In words: MRK activity in K562 cells, western blot. In kind it is cell-based. On the set-up: endogenous in cells. The note with it: 1 μM, 6 hours. How it is done:
as §3

For test [4], the system named is MRK. In words: Inhibition of MRK in vivo, brain lysates western blot. Details: species or system nude mice. The note with it: 18 hours after pump implantation. How it is done:
FIG. 10. Inhibition of MRK in vivo. Brains from control and M443-treated animals were harvested 18 hours after pump implantation. Each cerebellum was dissected from the rest of the brain and divided into left (L) and right (R), top (T) and bottom (B) portions. Brain lysates were tested for MRK activity by western blotting. Human HLA (hu-HLA) was used to identify the brain portions containing tumor cells of human origin. Tubulin was used as loading control.
To confirm that M443 administered into the brain inhibited MRK, brain extracts were obtained 18 hours after pump implantation, and MRK activity determined. […] The hu-HLA signal indicates the presence of tumor in the treated sample (lane 5).

In another test the test system is c-Abl. Briefly: c-Abl activity in brain lysates, phospho-Abl western blot. In kind it is in vivo, nude mice. The note with it: treated versus untreated tumor. As to the method: M443 is a derivative of nilotinib, an inhibitor of the BCR-Abl oncogene. To examine the specificity of M443, the activity of c-Abl was also determined, by blotting the brain lysates with a phospho-Abl-(P-c-Abl) specific antibody. […] As Abl is known to respond to stress, the increase in P-c-Abl may be caused by M443-induced cell stress.

Test [5] relates to MRK. Briefly: Irreversible inhibition of MRK activity after washout (P-MRK western blot). In kind it is cell-based. The settings on record: cells expressing activatable MRK construct, pretreated 6 hours, washed, then homodimerizing drug. As to the method:
FIG. 5. M443 inhibits MRK activity in an irreversible fashion. Cells expressing an activatable MRK construct were pretreated with the indicated inhibitors for 6 hours, then they were washed with PBS 3 times, incubated for 15 minutes, washed once more and after 15 minutes they were treated with the homodimerizing drug to activate MRK. Cell lysates were western blotted with the P-MRK antibody to detect active MRK (top blot). Histograms are data from quantified P-MRK bands from three independent experiments.

For test [6], the system named is IMB226 medulloblastoma cells. In words: Animal model of medulloblastoma, orthotopic implantation, survival. In kind it is in vivo, nude mice. How it is done: FIG. 9. Kaplan-Meier survival curve. Three weeks after implantation of IMB226 medulloblastoma cells in nude mice, animals were randomized into 4 groups of 12 mice for each treatment. M443 or the vehicle were delivered directly into the tumor via an ALZET pump.
The effect of M443 was tested in an animal model of medulloblastoma that employs orthotopic implantation of IMB226 medulloblastoma cells in nude mice. M443 was administered directly into the tumor using an osmotic pump that is connected to a catheter implanted into the brain in order to bypass the blood-brain barrier.

The next test concerns Chk2. In words: IR-induced signaling downstream of MRK, phospho-Chk2 western blot. In kind it is cell-based. The settings on record: UW228 cells, 500 nM M443 6 hours, 1 hour after IR. As to the method: as §1, §2
The target of test [7] is T1, MRK. On the set-up: endogenous in cells; host or cells: UW228 medulloblastoma cells. The note with it: reference (6); cited from earlier work.

Each structure is given as a SMILES string.

With `C=CC(=O)N1CCCC(c2ccnc(Nc3cc(C(=O)Nc4cc(-n5cnc(C)c5)cc(C(F)(F)F)c4)ccc3C)n2)C1` (stereo not shown) [M443], the “sensitization to X-ray irradiation (MTT viability)” value in the test with 4T1 breast cancer cells was “sensitizes breast cancer cells to X-ray irradiation”. In the test on p38, the “activation of p38 by ionizing radiation” value was “greatly reduced”. Also, at MRK [1], the IC50 (as a rule, the concentration that gives 50% inhibition) is around 125 nM. Further, on BCR-Abl, the “inhibition of BCR-Abl in K562 cells” value is “does not inhibit BCR-Abl”. Also, in test [2], the “sensitization to killing by radiation (colony formation)” value is “strongly sensitized”. Besides, the “inhibition of MRK activity in K562 cells” value on MRK [3] is listed as “as efficient as nilotinib”. Also, in the test with MRK [4], the “P-MRK signal in brain lysates” value was “none of the fractions from the M443-treated animal had a detectable signal for P-MRK” and the “total MRK levels in tumors” value was “strongly decreased”. Further, the “P-c-Abl signal in brain lysates” value in the test on c-Abl is recorded as “somewhat increased”. Moreover, in the test on MRK [5], the “inhibition of MRK activity (P-MRK) after washout” value was “effectively inhibits MRK in an irreversible fashion”. The “survival benefit, M443 on its own” value in test [6] (IMB226 orthotopic in nude mice, M443 into the tumor via osmotic pump, no IR) stood at 5 days. Moreover, the “increase in survival, combination of M443 and IR” value in test [6] (IMB226 orthotopic in nude mice, M443 into the tumor via osmotic pump, plus IR) came out at 16 days. For the same compound, in test [6] (M443-treated tumors), the tumor hemorrhage result was “less hemorrhagic”. Besides, in [6] (p<0.0029, 2×2 factorial Cox model), the “radiosensitization effect on survival” value is listed as “very significant radiosensitization effect”. The “activation of Chk2 by ionizing radiation” value in the test with Chk2 is listed as “greatly reduced”.

With `Cc1cn(-c2cc(NC(=O)c3ccc(C)c(Nc4nccc(-c5cccnc5)n4)c3)cc(C(F)(F)F)c2)cn1` [nilotinib], the “binding to MRK” value on MRK [7] is given as “binds strongly to MRK”.
